Measurements published in patent US12297235B2, “Synthetic peptide compounds and methods of use” (REALTA HOLDINGS, LLC, priority 2015, dated 2025).
Square brackets hold non-standard residues; d marks the D form. Peptide text beside a SMILES is read from it. PEG24 = NCCOCCOCCOCCOCCOCCOCCOCCOCCOCCOCCOCCOCCOCCOCCOCCOCCOCCOCCOCCOCCOCCOCCOCCOCCC(=O)O; Sar = CNCC(=O)O

experiment: Solubility in water; type: physicochemical; conditions: Table 7, PEGylated and Sar/Ala substitution peptides

| Compound | Solubility in water |
| --- | --- |
| CC[C@H](C)[C@H](N)C(=O)N[C@@H](C)C(=O)N[C@@H](CC(C)C)C(=O)N[C@H](C(=O)N[C@@H](CC(C)C)C(=O)N[C@@H](CCC(=O)O)C(=O)N(C)CC(=O)N[C@H](C(=O)N[C@@H](CS)C(=O)N[C@@H](CS)C(=O)N[C@@H](CCC(N)=O)C(=O)N[C@@H](CCC(=O)O)C(=O)N(C)CC(=O)N[C@@H](C)C(=O)N[C@@H](C)C(=O)O)[C@@H](C)CC)[C@@H](C)CC [Peptide R13SarP7Sar, IALILE(Sar)ICCQE(Sar)AA] (H-IALILE[Sar]ICCQE[Sar]AA-OH) | No |
| CC[C@H](C)[C@H](N)C(=O)N[C@@H](C)C(=O)N[C@@H](CC(C)C)C(=O)N[C@H](C(=O)N[C@@H](CC(C)C)C(=O)N(C)CC(=O)N(C)CC(=O)N[C@H](C(=O)N[C@@H](CS)C(=O)N[C@@H](CS)C(=O)N[C@@H](CCC(N)=O)C(=O)N[C@@H](CCC(=O)O)C(=O)N[C@@H](CCCNC(=N)N)C(=O)N[C@@H](C)C(=O)N[C@@H](C)C(=O)O)[C@@H](C)CC)[C@@H](C)CC [Peptide E6SarP7Sar] (H-IALIL[Sar][Sar]ICCQERAA-OH; N-terminus and C-terminus assumed) | Yes |
| CC[C@H](C)[C@H](N)C(=O)N[C@@H](C)C(=O)N[C@@H](CC(C)C)C(=O)N[C@H](C(=O)N[C@@H](CC(C)C)C(=O)N[C@@H](CCC(=O)O)C(=O)N1CCC[C@H]1C(=O)N[C@H](C(=O)N[C@@H](CS)C(=O)N[C@@H](CS)C(=O)N(C)CC(=O)N[C@@H](CCC(=O)O)C(=O)N[C@@H](CCCNC(=N)N)C(=O)N[C@@H](C)C(=O)N[C@@H](C)C(=O)NCCOCCOCCOCCOCCOCCOCCOCCOCCOCCOCCOCCOCCOCCOCCOCCOCCOCCOCCOCCOCCOCCOCCOCCOCCC(=O)O)[C@@H](C)CC)[C@@H](C)CC [PA-Q11Sar-dPEG24] | Yes |
| CC[C@H](C)[C@H](N)C(=O)N[C@@H](C)C(=O)N[C@@H](CC(C)C)C(=O)N[C@H](C(=O)N[C@@H](CC(C)C)C(=O)N[C@@H](CCC(=O)O)C(=O)N(C)CC(=O)N[C@H](C(=O)N(C)CC(=O)N[C@@H](CS)C(=O)N[C@@H](CCC(N)=O)C(=O)N[C@@H](CCC(=O)O)C(=O)N[C@@H](CCCNC(=N)N)C(=O)N[C@@H](C)C(=O)N[C@@H](C)C(=O)O)[C@@H](C)CC)[C@@H](C)CC [PA-P7SarC9Sar, IALILE(Sar)I(Sar)CQERAA] (H-IALILE[Sar]I[Sar]CQERAA-OH) | Yes |
| CC[C@H](C)[C@H](N)C(=O)N[C@@H](C)C(=O)N[C@@H](CC(C)C)C(=O)N[C@H](C(=O)N[C@@H](CC(C)C)C(=O)N[C@@H](CCC(=O)O)C(=O)N(C)CC(=O)N[C@H](C(=O)N[C@@H](CS)C(=O)N[C@@H](CS)C(=O)N(C)CC(=O)N[C@@H](CCC(=O)O)C(=O)N[C@@H](CCCNC(=N)N)C(=O)N[C@@H](C)C(=O)N[C@@H](C)C(=O)O)[C@@H](C)CC)[C@@H](C)CC [Peptide Q11SarP7Sar, IALILE(Sar)ICC(Sar)ERAA] (H-IALILE[Sar]ICC[Sar]ERAA-OH; N-terminus and C-terminus assumed) | Yes |
| CC[C@H](C)[C@H](N)C(=O)N[C@@H](C)C(=O)N[C@@H](CC(C)C)C(=O)N[C@H](C(=O)N[C@@H](CC(C)C)C(=O)N[C@@H](CCC(=O)O)C(=O)N1CCC[C@H]1C(=O)N[C@H](C(=O)N(C)CC(=O)N[C@@H](CCC(N)=O)C(=O)N[C@@H](CCC(=O)O)C(=O)N[C@@H](CCCNC(=N)N)C(=O)N[C@@H](C)C(=O)N[C@@H](C)C(=O)O)[C@@H](C)CC)[C@@H](C)CC [PA-C9SarD10] (H-IALILEPI[Sar]QERAA-OH) | Yes |
| CC[C@H](C)[C@H](N)C(=O)N[C@@H](C)C(=O)N[C@@H](CC(C)C)C(=O)N[C@H](C(=O)N[C@@H](CC(C)C)C(=O)N[C@@H](CCC(=O)O)C(=O)N1CCC[C@H]1C(=O)N[C@H](C(=O)N(C)CC(=O)N[C@@H](C)C(=O)N[C@@H](CCC(N)=O)C(=O)N[C@@H](CCC(=O)O)C(=O)N[C@@H](CCCNC(=N)N)C(=O)N[C@@H](C)C(=O)N[C@@H](C)C(=O)O)[C@@H](C)CC)[C@@H](C)CC [PA-C9SarC10A] (H-IALILEPI[Sar]AQERAA-OH) | Yes |
| CC[C@H](C)[C@H](N)C(=O)N[C@@H](C)C(=O)N[C@@H](CC(C)C)C(=O)N[C@H](C(=O)N[C@@H](CC(C)C)C(=O)N[C@@H](CCC(=O)O)C(=O)N1CCC[C@H]1C(=O)N[C@H](C(=O)N[C@@H](CS)C(=O)N[C@@H](CS)C(=O)N[C@@H](CCC(N)=O)C(=O)N[C@@H](CCC(=O)O)C(=O)N[C@@H](CCCNC(=N)N)C(=O)N(C)CC(=O)N[C@@H](C)C(=O)NCCOCCOCCOCCOCCOCCOCCOCCOCCOCCOCCOCCOCCOCCOCCOCCOCCOCCOCCOCCOCCOCCOCCOCCOCCC(=O)O)[C@@H](C)CC)[C@@H](C)CC [PA-A14Sar-dPEG24] | Yes |
| CC[C@H](C)[C@H](N)C(=O)N[C@@H](C)C(=O)N[C@@H](CC(C)C)C(=O)N[C@H](C(=O)N[C@@H](CC(C)C)C(=O)N[C@@H](C)C(=O)N(C)CC(=O)N[C@H](C(=O)N[C@@H](CS)C(=O)N[C@@H](CS)C(=O)N[C@@H](CCC(N)=O)C(=O)N[C@@H](C)C(=O)N[C@@H](CCCNC(=N)N)C(=O)N[C@@H](C)C(=O)N[C@@H](C)C(=O)O)[C@@H](C)CC)[C@@H](C)CC [Peptide E6AE12AP7Sar] (H-IALILA[Sar]ICCQARAA-OH; N-terminus and C-terminus assumed) | Yes |
| CC[C@H](C)[C@H](N)C(=O)N[C@@H](C)C(=O)N[C@@H](CC(C)C)C(=O)N[C@H](C(=O)N[C@@H](CC(C)C)C(=O)N[C@@H](CCC(=O)O)C(=O)N1CCC[C@H]1C(=O)N[C@H](C(=O)N(C)CC(=O)N[C@@H](CS)C(=O)N(C)CC(=O)N[C@@H](CCC(=O)O)C(=O)N[C@@H](CCCNC(=N)N)C(=O)N[C@@H](C)C(=O)N[C@@H](C)C(=O)O)[C@@H](C)CC)[C@@H](C)CC [Peptide Q11SarC9Sar] (H-IALILEPI[Sar]C[Sar]ERAA-OH) | Yes |
| CC[C@H](C)[C@H](N)C(=O)N[C@@H](C)C(=O)N[C@@H](CC(C)C)C(=O)N[C@H](C(=O)N[C@@H](CC(C)C)C(=O)N[C@@H](CCC(=O)O)C(=O)N1CCC[C@H]1C(=O)N[C@H](C(=O)N(C)CC(=O)N[C@@H](CS)C(=O)N[C@@H](CCC(N)=O)C(=O)N[C@@H](CCC(=O)O)C(=O)N(C)CC(=O)N[C@@H](C)C(=O)N[C@@H](C)C(=O)O)[C@@H](C)CC)[C@@H](C)CC [Peptide R13SarC9Sar] (H-IALILEPI[Sar]CQE[Sar]AA-OH) | No |
| CC[C@H](C)[C@H](N)C(=O)N[C@@H](C)C(=O)N[C@@H](CC(C)C)C(=O)N[C@H](C(=O)N[C@@H](CC(C)C)C(=O)N(C)CC(=O)N1CCC[C@H]1C(=O)N[C@H](C(=O)N(C)CC(=O)N[C@@H](CS)C(=O)N[C@@H](CCC(N)=O)C(=O)N[C@@H](CCC(=O)O)C(=O)N[C@@H](CCCNC(=N)N)C(=O)N[C@@H](C)C(=O)N[C@@H](C)C(=O)O)[C@@H](C)CC)[C@@H](C)CC [Peptide E6SarC9Sar, IALIL(Sar)PI(Sar)CQERAA] (H-IALIL[Sar]PI[Sar]CQERAA-OH) | Yes |
| CC[C@H](C)[C@H](N)C(=O)N[C@@H](C)C(=O)N[C@@H](CC(C)C)C(=O)N[C@H](C(=O)N[C@@H](CC(C)C)C(=O)N[C@@H](C)C(=O)N1CCC[C@H]1C(=O)N[C@H](C(=O)N(C)CC(=O)N[C@@H](CS)C(=O)N[C@@H](CCC(N)=O)C(=O)N[C@@H](C)C(=O)N[C@@H](CCCNC(=N)N)C(=O)N[C@@H](C)C(=O)N[C@@H](C)C(=O)O)[C@@H](C)CC)[C@@H](C)CC [Peptide E6AE12AC9Sar] (H-IALILAPI[Sar]CQARAA-OH) | No |
| CC[C@H](C)[C@H](N)C(=O)N[C@@H](C)C(=O)N[C@@H](CC(C)C)C(=O)N[C@H](C(=O)N[C@@H](CC(C)C)C(=O)N[C@@H](C)C(=O)N1CCC[C@H]1C(=O)N[C@H](C(=O)N[C@@H](CS)C(=O)N[C@@H](CS)C(=O)N[C@@H](CCC(N)=O)C(=O)N[C@@H](C)C(=O)N[C@@H](CCCNC(=N)N)C(=O)N[C@@H](C)C(=O)N[C@@H](C)C(=O)NCCOCCOCCOCCOCCOCCOCCOCCOCCOCCOCCOCCOCCOCCOCCOCCOCCOCCOCCOCCOCCOCCOCCOCCOCCC(=O)O)[C@@H](C)CC)[C@@H](C)CC [E6AE12A-dPEG24] (H-IALILAPICCQARAA[PEG24]-OH) | Yes |
| CC[C@H](C)[C@H](N)C(=O)N[C@@H](C)C(=O)N[C@@H](CC(C)C)C(=O)N[C@H](C(=O)N[C@@H](CC(C)C)C(=O)N[C@@H](CCC(=O)O)C(=O)N(C)CC(=O)N[C@H](C(=O)N[C@@H](CS)C(=O)N[C@@H](CS)C(=O)N[C@@H](CCC(N)=O)C(=O)N[C@@H](CCC(=O)O)C(=O)N[C@@H](CCCNC(=N)N)C(=O)N(C)CC(=O)N[C@@H](C)C(=O)O)[C@@H](C)CC)[C@@H](C)CC [Peptide A14SarP7Sar, IALILE(Sar)ICCQER(Sar)A] (H-IALILE[Sar]ICCQER[Sar]A-OH; N-terminus and C-terminus assumed) | Yes |
| CC[C@H](C)[C@H](N)C(=O)N[C@@H](C)C(=O)N[C@@H](CC(C)C)C(=O)N[C@H](C(=O)N[C@@H](CC(C)C)C(=O)N(C)CC(=O)N1CCC[C@H]1C(=O)N[C@H](C(=O)N[C@@H](CS)C(=O)N[C@@H](CS)C(=O)N[C@@H](CCC(N)=O)C(=O)N[C@@H](CCC(=O)O)C(=O)N[C@@H](CCCNC(=N)N)C(=O)N[C@@H](C)C(=O)N[C@@H](C)C(=O)NCCOCCOCCOCCOCCOCCOCCOCCOCCOCCOCCOCCOCCOCCOCCOCCOCCOCCOCCOCCOCCOCCOCCOCCOCCC(=O)O)[C@@H](C)CC)[C@@H](C)CC [PA-E6Sar-dPEG24] | Yes |
| CC[C@H](C)[C@H](N)C(=O)N[C@@H](C)C(=O)N[C@@H](CC(C)C)C(=O)N[C@H](C(=O)N[C@@H](CC(C)C)C(=O)N[C@@H](CCC(=O)O)C(=O)N1CCC[C@H]1C(=O)N[C@H](C(=O)N[C@@H](CS)C(=O)N[C@@H](CS)C(=O)N[C@@H](CCC(N)=O)C(=O)N[C@@H](CCC(=O)O)C(=O)N(C)CC(=O)N[C@@H](C)C(=O)N[C@@H](C)C(=O)NCCOCCOCCOCCOCCOCCOCCOCCOCCOCCOCCOCCOCCOCCOCCOCCOCCOCCOCCOCCOCCOCCOCCOCCOCCC(=O)O)[C@@H](C)CC)[C@@H](C)CC [PA-R13Sar-dPEG24] | Yes |
